Assay results as given in patent publication US8563547B2, “(6,7-dihydro-2-nitro-5H-imidazol[2,1-b][1,3]oxazin-6-yl) amide compounds, preparation methods and uses thereof” (Shanghai Sun-Sail Pharmaceutical Science & Technology Co., …, priority 2010, dated 2013).
Values after ≈ are worked out from the molar mass of the structure shown.

How the values were obtained:
Assay in all cases: microbe, parasite or virus in culture
Format in all cases: cell-based, Mycobacterium tuberculosis
[1] = system: strain 246: resistant to streptomycin (WHO QC bacterium); settings: for MIC: Mycobacterium tuberculosis, read-out: drug-resistance bacteria MIC, 246 (S mono-resistance); for MIC value, times as that of PA-824, streptomycin resistance 246: strain 246, relative to PA-824
[2] = system: strain 242: resistant to isoniazide (WHO QC bacterium); settings: for MIC: Mycobacterium tuberculosis, read-out: drug-resistance bacteria MIC, 242 (H mono-resistance); for MIC value, times as that of PA-824, isoniazide resistance 242: strain 242, relative to PA-824
[3] = system: strain 261: resistant to rifampicin (WHO QC bacterium); settings: for MIC: Mycobacterium tuberculosis, read-out: drug-resistance bacteria MIC, 261 (R mono-resistance); for MIC value, times as that of PA-824, rifampicin resistance 261: strain 261, relative to PA-824

| SMILES | MIC [1] [µg/mL] | MIC value, times as that of PA-824, streptomycin resistance 246 [1] [times] | MIC [2] [µg/mL] | MIC value, times as that of PA-824, isoniazide resistance 242 [2] [times] | MIC [3] [µg/mL] | MIC value, times as that of PA-824, rifampicin resistance 261 [3] [times] |
| --- | --- | --- | --- | --- | --- | --- |
| O=C(CCN1CCC(Oc2ccc(OC(F)(F)F)cc2)CC1)N[C@@H]1COc2nc([N+](=O)[O-])cn2C1 [Compound 22, (S)-N-(6,7-dihydro-2-nitro-5H-imidazo [2,1-b][1,3]oxazin-6-yl)-3-(4-(4-(trifluoromethoxy)phenoxy)piperid-1-yl)propanamide] | 0.0625 (≈ 0.125 µM) | 8 | 0.5 (≈ 1 µM) | 2 | < 0.0312 | 16 |
| O=[N+]([O-])c1cn2c(n1)OC[C@@H](OCc1ccc(OC(F)(F)F)cc1)C2 [PA-824, reference compound] | 0.5 (≈ 1.39 µM) |  | 1 (≈ 2.78 µM) |  | 0.5 (≈ 1.39 µM) |  |
| O=C(CN1CCC(Oc2ccc(OC(F)(F)F)cc2)CC1)N[C@@H]1COc2nc([N+](=O)[O-])cn2C1 [Compound 1, (S)-N-(6,7-dihydro-2-nitro-5H-imidazo [2,1-b][1,3]oxazin-6-yl)-2-(4-(4-(trifluoromethoxy)phenoxy)piperid-1-yl)acetamide] | < 0.0312 | 16 | 0.5 (≈ 1.03 µM) | 2 | < 0.0312 | 16 |
